In patent US4159373A, “7-Acyl-3-(sulfonic acid and sulfamoyl substituted tetrazolyl thiomethyl) cephalosporins” (SmithKline Corporation, priority 1978, dated 1979) one finds MIC, ED50 and MIC in vitro data, which are given here for 3 compounds.

The subject of one assay is E. coli HH 33779. The assay can be described thus: MIC in vitro. It counts as cell-based. As to conditions: for MIC: Escherichia coli. The method, then:
(§1) The compounds of Formula I have exceptional antibacterial activity against both Gram-positive and Gram-negative organisms. Minimum inhibitory concentrations (MIC's) ranged from 0.2 to <200 μg./ml. in in vitro testing.

For a further assay, the system named is E. coli SK 12140. Briefly: MIC in vitro. The following applies: Escherichia coli, E. coli SK 12140. It counts as cell-based. The method, then: as §1
The next assay relates to Proteus morgani 179. The assay can be described thus: MIC in vitro. It counts as cell-based. As to conditions: Table 1, read-out: MIC in vitro. How it is done: as §1
In another assay the test system is S. aureus HH 127. The assay can be described thus: MIC in vitro. It counts as cell-based. As to conditions: Staphylococcus aureus, HH127; Table 1; S. aureus HH 127; read-out: MIC in vitro. How it is done:
as §1

The subject of another assay is S. aureus SK 23390. The assay can be described thus: MIC in vitro. It counts as cell-based. As to conditions: S. aureus SK 23390; for MIC: Staphylococcus aureus, SK23390, Table 1, read-out: MIC in vitro. The method, then:
as §1

The next assay has as its system S. villaluz. Briefly: MIC in vitro. As to conditions: Table 1. It counts as cell-based. How it is done: as §1
Another assay concerns Salmonella ATCC 12176. Briefly: MIC in vitro. It counts as cell-based. As to conditions: for MIC: Salmonella. How it is done: as §1
In another assay the test system is Strep. Faecalis HH 34358. Briefly: MIC in vitro. It counts as cell-based. As to conditions: Enterococcus faecalis, Table 1; Strep. Faecalis HH 34358; read-out: MIC in vitro. The method, then:
as §1

The next assay deals with Kleb. pneumo. SK 1200. Briefly: MIC in vitro. It counts as cell-based, Kleb. pneumoniae. As to conditions: Klebsiella pneumoniae, Table 1; Kleb. pneumo. SK 1200; read-out: MIC in vitro. The method, then:
as §1

A further assay relates to Kleb. pneumo. SK 4200. Briefly: MIC in vitro. It counts as cell-based, Kleb. pneumoniae. As to conditions: Table 1, Kleb. pneumo. SK 4200; for MIC: Klebsiella pneumoniae, read-out: MIC in vitro. How it is done:
as §1

For a further assay, the system named is Psuedo. sp. HH 63. The assay can be described thus: MIC in vitro. It counts as cell-based, Pseudo. aeruginosa. As to conditions: Pseudomonas aeruginosa; Table 1; Psuedo. sp. HH 63; read-out: MIC in vitro. How it is done:
as §1

Assay [1] relates to Entero. aerog. ATCC 13048. The assay can be described thus: MIC in vitro. It counts as cell-based, Enterobacter aerogenes. As to conditions: Klebsiella aerogenes. The method, then: as §1
In the next assay the test system is Serra. marc ATCC 13880. The assay can be described thus: MIC in vitro. It counts as cell-based, Serratia marcescens. As to conditions: for MIC: Serratia marcescens. The method, then:
as §1

The test system of another assay is Entero. cloacae HH 31254. The assay can be described thus: MIC in vitro. As to conditions: Enterobacter cloacae. It counts as cell-based.
The subject of another assay is E. coli 12140. The assay can be described thus: In vivo mouse protection, E. coli 12140. The following applies: Table 2, E. coli 12140, read-out: ED50 in vivo.
The subject of the next assay is shigella HH 117. The assay can be described thus: MIC in vitro. It counts as cell-based. How it is done:
as §1

For the next assay, the system named is Kleb. pneumo. 4200. Briefly: In vivo mouse protection, Kleb. pneumo. 4200. The following applies: read-out: ED50 in vivo.
Where [2] appears, read: SK12140, read-out: MIC in vitro, Table 1.
Setting [3] is: ATCC12176, Table 1, read-out: MIC in vitro.
Where [4] appears, read: ATCC13880, read-out: MIC in vitro.
Setting [5] is: HH31254, read-out: MIC in vitro, Table 1.
[6] abbreviates: Escherichia coli, 12140, sc, s.c.
Where [7] appears, read: HH33779, Table 1, E. coli HH 33779, read-out: MIC in vitro.
Where [8] appears, read: SK12140, Table 1, read-out: MIC in vitro.
[9] abbreviates: sc, Table 2, Kleb. pneumo. 4200, s.c.

Molecules are shown by their SMILES. Converted amounts (≈) assume the structure as drawn. Read-outs that look alike come from different tables or passages of the source.

In the case of `NCc1ccccc1CC(=O)NC1C(=O)N2C(C(=O)O)=C(CSc3nnnn3CS(=O)(=O)O)CS[C@H]12` (stereo partly shown) [XI, 7-(o-aminomethylphenylacetamido)-3-(1-sulfomethyltetrazol-5-ylthiomethyl)-3-cephem-4-carboxylic acid], the MIC with E. coli HH 33779 (HH33779, read-out: MIC in vitro) worked out at 0.4 µg/mL (≈ 0.72 µM); with E. coli SK 12140 (setting [2]), 0.2 µg/mL (≈ 0.36 µM); in the assay on Proteus morgani 179, 50 µg/mL (≈ 90 µM); in the assay on S. aureus HH 127, 1.6 µg/mL (≈ 2.88 µM); in the assay with S. aureus SK 23390, 1.6 µg/mL (≈ 2.88 µM); against S. villaluz it was 200 µg/mL (≈ 360 µM). For the same compound, the MIC in the assay with Salmonella ATCC 12176 (setting [3]) was no more than 0.1 µg/mL; in the assay on Strep. Faecalis HH 34358, 25 µg/mL (≈ 45 µM); in the assay on Kleb. pneumo. SK 1200, no more than 0.1 µg/mL; in the assay on Kleb. pneumo. SK 4200 it was no more than 0.1 µg/mL; in the assay on Psuedo. sp. HH 63 it was greater than 200 µg/mL; in assay [1] (ATCC13048, read-out: MIC in vitro), 0.8 µg/mL (≈ 1.44 µM). Also, the MIC with Serra. marc ATCC 13880 (setting [4]) turned out to be 6.3 µg/mL (≈ 11.3 µM); with Entero. cloacae HH 31254 (setting [5]), 0.8 µg/mL (≈ 1.44 µM). The ED50 in the assay with E. coli 12140 (setting [6]) was determined as 21.5 mg/kg.

For `NS(=O)(=O)CCn1nnnc1SCC1=C(C(=O)O)N2C(=O)C(NC(=O)[C@H](O)c3ccccc3)[C@H]2SC1` (stereo partly drawn) [III, 7-D-mandelamido-3-[1-(2-sulfamoylethyl)tetrazol-5-ylthiomethyl]-3-cephem-4-carboxylic acid], the MIC with E. coli HH 33779 (setting [7]) amounted to 1.6 µg/mL (≈ 2.88 µM); with E. coli SK 12140 (setting [8]), 0.8 µg/mL (≈ 1.44 µM); in the assay with Proteus morgani 179, 3.1 µg/mL (≈ 5.58 µM); with S. aureus HH 127, 1.6 µg/mL (≈ 2.88 µM); with S. aureus SK 23390 it was 0.2 µg/mL (≈ 0.36 µM); in the assay on Salmonella ATCC 12176 (setting [3]), 0.4 µg/mL (≈ 0.72 µM). Besides, the MIC in the assay on Strep. Faecalis HH 34358 is 12.5 µg/mL (≈ 22.5 µM); in the assay with shigella HH 117 (HH117, Table 1, shigella HH 117, read-out: MIC in vitro), 0.2 µg/mL (≈ 0.36 µM); in the assay with Kleb. pneumo. SK 1200, 0.8 µg/mL (≈ 1.44 µM); with Kleb. pneumo. SK 4200, 1.6 µg/mL (≈ 2.88 µM); in the assay on Psuedo. sp. HH 63 it was greater than 200 µg/mL; in [1] (ATCC13048, Table 1, Entero. aerog. ATCC 13048, read-out: MIC in vitro) it was 3.1 µg/mL (≈ 5.58 µM). In addition, the MIC with Serra. marc ATCC 13880 (setting [4]) came to 6.3 µg/mL (≈ 11.3 µM); with Entero. cloacae HH 31254 (setting [5]), 0.8 µg/mL (≈ 1.44 µM). For the same compound, the ED50 stood at 25 mg/kg with E. coli 12140 (Escherichia coli, 12140, po, p.o.); 0.7 mg/kg in the assay with E. coli 12140 (setting [6]); 21.5 mg/kg in the assay with Kleb. pneumo. 4200 (po, Table 2, Kleb. pneumo. 4200, p.o.); 0.68 mg/kg in the assay with Kleb. pneumo. 4200 (setting [9]).

Take `O=C(CSC(F)(F)F)NC1C(=O)N2C(C(=O)O)=C(CSc3nnnn3CS(=O)(=O)O)CSC12` (stereo not shown) [VII, 7-Trifluoromethylthioacetamido-3-(1-sulfomethyltetrazol-5-ylthiomethyl)-3-cephem-4-carboxylic acid]: the MIC with E. coli HH 33779 (setting [7]) came to 3.1 µg/mL (≈ 5.63 µM); in the assay on E. coli SK 12140 (setting [2]), 0.4 µg/mL (≈ 0.727 µM); in the assay with E. coli SK 12140 (setting [8]), 0.8 µg/mL (≈ 1.45 µM); in the assay on Proteus morgani 179, 100 µg/mL (≈ 182 µM); in the assay with S. aureus HH 127, 0.8 µg/mL (≈ 1.45 µM); with S. aureus SK 23390, 0.8 µg/mL (≈ 1.45 µM). In addition, the MIC in the assay on Salmonella ATCC 12176 (ATCC12176, read-out: MIC in vitro, Table 1) is 0.4 µg/mL (≈ 0.727 µM); in the assay with Strep. Faecalis HH 34358, 50 µg/mL (≈ 90.8 µM); in the assay with shigella HH 117 (Shigella, HH117, read-out: MIC in vitro) it was 0.8 µg/mL (≈ 1.45 µM); in the assay on Kleb. pneumo. SK 1200 it was 0.2 µg/mL (≈ 0.363 µM); in the assay on Kleb. pneumo. SK 4200, 0.4 µg/mL (≈ 0.727 µM); with Psuedo. sp. HH 63, greater than 200 µg/mL. The minimal inhibitory concentration (MIC) in the assay on Serra. marc ATCC 13880 (ATCC13880, Table 1, Serra. marc ATCC 13880, read-out: MIC in vitro) came to 200 µg/mL (≈ 363 µM); in the assay on Entero. cloacae HH 31254 (HH31254, Table 1, read-out: MIC in vitro), 3.1 µg/mL (≈ 5.63 µM); in the assay on Entero. cloacae HH 31254 (setting [5]), 0.8 µg/mL (≈ 1.45 µM). In addition, the MIC in vitro against E. coli HH 33779 (Table 1, E. coli HH 33779) is 1.6 µg/mL (≈ 2.91 µM); against S. aureus SK 23390 (Table 1) it was 0.4 µg/mL (≈ 0.727 µM); in the assay with Salmonella ATCC 12176 (Table 1), 0.2 µg/mL (≈ 0.363 µM); in the assay on Kleb. pneumo. SK 4200, 0.2 µg/mL (≈ 0.363 µM); with Serra. marc ATCC 13880 (Table 1, Serra. marc ATCC 13880), 100 µg/mL (≈ 182 µM). Also, the ED50 came out at 0.86 mg/kg in the assay on E. coli 12140 (setting [6]) and 0.24 mg/kg with Kleb. pneumo. 4200 (setting [9]).
